How the values were obtained:
[1] = test system: Plasmodium falciparum; test: Ratio of IC50 for aerucyclamide B to compound IC50 for chloroquine-resistant Plasmodium falciparum K1 infected in human A-positive type erythrocytes assessed as [3H]hypoxanthine incorporation after 24 hrs by scintillation counting; type: functional
[2] = test system: Plasmodium falciparum; test: Antimalarial activity against chloroquine-resistant Plasmodium falciparum K1 infected in human A-positive type erythrocytes assessed as [3H]hypoxanthine incorporation after 24 hrs by scintillation counting; type: functional, organism-based

SMILES: CC[C@H](C)[C@@H]1NC(=O)c2csc(n2)[C@H]([C@@H](C)CC)NC(=O)c2csc(n2)CNC(=O)c2nc1oc2C [MACROCYCLE]
- Ratio IC50 [1]: 4
- IC50 [2]: 180 nM

From ChEMBL document CHEMBL2057148, “Synthesis of a Microcystis aeruginosa predicted metabolite with antimalarial activity” (Bioorg Med Chem Lett, 2012)
